Data from publication PMC9326880 (Journal of Food and Drug Analysis, 2017).
Where two headings read alike, the source gives them in different places.

Assays:
P-gp [1] = target: T1, P-gp (Homo sapiens, UniProt P08183)
P-gp [2] = target: T1, P-gp; remark: listed apart in the source

T1 sequence (P08183 whole entry): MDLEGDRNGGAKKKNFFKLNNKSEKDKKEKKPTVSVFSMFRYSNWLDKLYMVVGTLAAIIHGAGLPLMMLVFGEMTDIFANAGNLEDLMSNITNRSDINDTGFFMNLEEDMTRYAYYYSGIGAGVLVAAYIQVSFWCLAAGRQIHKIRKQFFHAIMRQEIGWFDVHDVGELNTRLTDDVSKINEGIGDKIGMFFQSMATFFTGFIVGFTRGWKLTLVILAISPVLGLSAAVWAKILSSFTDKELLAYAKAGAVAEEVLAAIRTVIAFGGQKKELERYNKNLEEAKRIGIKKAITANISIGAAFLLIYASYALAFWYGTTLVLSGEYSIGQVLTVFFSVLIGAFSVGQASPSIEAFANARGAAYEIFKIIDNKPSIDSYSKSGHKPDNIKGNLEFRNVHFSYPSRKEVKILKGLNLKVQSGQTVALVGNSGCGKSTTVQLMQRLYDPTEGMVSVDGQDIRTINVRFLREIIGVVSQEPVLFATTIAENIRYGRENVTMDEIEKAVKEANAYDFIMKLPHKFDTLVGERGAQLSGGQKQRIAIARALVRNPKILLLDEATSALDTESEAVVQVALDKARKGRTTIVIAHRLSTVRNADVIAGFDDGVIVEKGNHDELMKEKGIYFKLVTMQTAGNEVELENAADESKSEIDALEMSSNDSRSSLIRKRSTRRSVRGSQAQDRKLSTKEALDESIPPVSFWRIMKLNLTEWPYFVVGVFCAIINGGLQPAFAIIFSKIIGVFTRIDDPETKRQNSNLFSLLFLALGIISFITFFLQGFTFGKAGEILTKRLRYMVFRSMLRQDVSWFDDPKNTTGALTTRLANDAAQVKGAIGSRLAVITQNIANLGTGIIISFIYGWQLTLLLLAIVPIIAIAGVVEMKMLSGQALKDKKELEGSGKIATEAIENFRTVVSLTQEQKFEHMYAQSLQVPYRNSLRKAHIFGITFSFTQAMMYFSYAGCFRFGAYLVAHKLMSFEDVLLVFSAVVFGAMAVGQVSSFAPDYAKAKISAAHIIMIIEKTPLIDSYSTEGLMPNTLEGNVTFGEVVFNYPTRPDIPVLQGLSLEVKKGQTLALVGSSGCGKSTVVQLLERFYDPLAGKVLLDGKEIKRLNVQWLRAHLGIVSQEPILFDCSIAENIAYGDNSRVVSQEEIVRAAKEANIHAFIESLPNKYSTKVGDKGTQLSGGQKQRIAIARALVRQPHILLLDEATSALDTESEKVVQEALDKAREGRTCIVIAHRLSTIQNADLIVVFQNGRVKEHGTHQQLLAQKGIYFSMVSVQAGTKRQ

Compound | Influence on viability of LS 180 cells (MTT) (LS 180 cells) | Decrease of intracellular accumulation of rhodamine 123 (P-gp [1]) | Decrease of intracellular accumulation of rhodamine 123 (P-gp [2]) | Enhancement of intracellular accumulation of rhodamine 123 (P-gp [2])
CO[C@H]1/C=C/O[C@@]2(C)Oc3c(C)c(O)c4c(O)c(c(/C=N/N5CCN(C)CC5)c(O)c4c3C2=O)NC(=O)/C(C)=C\C=C\[C@H](C)[C@H](O)[C@@H](C)[C@@H](O)[C@@H](C)[C@H](OC(C)=O)[C@@H]1C [rifampin, Rifampin] | no toxic influences | 22.7% | – | –
COc1cc2c(cc1OC)-c1cc3ccc(OC)c(OC)c3c[n+]1CC2 [palmatine, Palmatine] | no toxic influences | – | 16–18% | –
COc1ccc(CCN(C)CCCC(C#N)(c2ccc(OC)c(OC)c2)C(C)C)cc1OC (stereo not shown) [verapamil] | no toxic influences | – | – | 32.5%
c1c2c(cc3c1OCO3)-c1cc3ccc4c(c3c[n+]1CC2)OCO4 [coptisine, Coptisine] | no toxic influences | – | 24–39% | –
COc1ccc2cc3[n+](cc2c1OC)CCc1cc2c(cc1-3)OCO2 [berberine, Berberine] | no toxic influences | – | 24–39% | –
